Here are results for 2 compounds from publication PMC4718634, “Murine GPRC6A Mediates Cellular Responses to L-Amino Acids, but Not Osteocalcin Variants” (PLoS ONE, 2016).

Bridge positions count the residues as written; N and C are the ends. Ends that are not written are not given here.

In experiment [1] the test system is mouse pancreatic islets. Put plainly: Insulin release from mouse pancreatic islets. The experiment is classed as cell-based. To be noted: L-arginine 20 mM; *P < 0.05 vs Vehicle; n = 2; S3 Fig B. The method, then: Islets were collagenase-isolated from mice (10 x C57Bl/6; 12–13 weeks; Charles River) and incubated overnight in RPMI (with 10% FBS (v/v), 10 mM HEPES, 100 U/ml penicillin, 100 μg/ml streptomycin, sodium pyruvate and 10 mM glucose) at 37°C in 5% CO2. Islets were seeded into a 96-well plate (4 / well) in Kreb’s buffer containing 2.8 mM glucose and washed twice with the same buffer. 200 μl test drugs were added in Kreb’s buffer with the required concentration of glucose and incubated at 37°C in 5% CO2 for 90 min. The plate was centrifuged for 10 s at 200 g, supernatant recovered and insulin levels detected as described above. This protocol was approved by the IDRS (Institut de Recherches Servier) Institutional Animal Care and Use Committee.
(§1) Concentration-response data were analysed using a three or four parameter logistic function (Motulsky & Christopoulos, 2004) to generate estimates of agonist potency (LogEC50). Data for all HEK293 assays represent the mean ± SEM of at least three independent experiments (except cell impedance, n = 2). For GLP-1 release, the data represent mean ± SEM of three to five independent experiments (except for OCN, wash; n = 2). For insulin release assays, data represent the mean ± SEM of three independent experiments (except for islet studies; n = 2). Insulin release data were normalised to the response to vehicle in either low or high [glucose]. Statistical analysis for GLP-1 release data were performed by one-way ANOVA, followed by Sidak’s multiple comparisons test (treating wash / no wash datasets separately). Statistical analyses for insulin release data were performed by two-way ANOVA (with [glucose] and drug treatment as group variables), followed by Sidak’s multiple comparisons test. Where only high [glucose] groups were evaluated, statistical analysis was by one-way ANOVA followed by Sidak’s multiple comparisons test.

Experiment [2] relates to GPRC6A. Further details: method as in PMID 15576628. As to conditions: chimera with goldfish 5.24 receptor and full length GPRC6A; ref [1]; cited from earlier work.
For experiment [3], the target named is T1, mGPRC6A (mouse GPRC6A) (Mus musculus, UniProt Q8K4Z6).
T1 sequence (Q8K4Z6 21-928): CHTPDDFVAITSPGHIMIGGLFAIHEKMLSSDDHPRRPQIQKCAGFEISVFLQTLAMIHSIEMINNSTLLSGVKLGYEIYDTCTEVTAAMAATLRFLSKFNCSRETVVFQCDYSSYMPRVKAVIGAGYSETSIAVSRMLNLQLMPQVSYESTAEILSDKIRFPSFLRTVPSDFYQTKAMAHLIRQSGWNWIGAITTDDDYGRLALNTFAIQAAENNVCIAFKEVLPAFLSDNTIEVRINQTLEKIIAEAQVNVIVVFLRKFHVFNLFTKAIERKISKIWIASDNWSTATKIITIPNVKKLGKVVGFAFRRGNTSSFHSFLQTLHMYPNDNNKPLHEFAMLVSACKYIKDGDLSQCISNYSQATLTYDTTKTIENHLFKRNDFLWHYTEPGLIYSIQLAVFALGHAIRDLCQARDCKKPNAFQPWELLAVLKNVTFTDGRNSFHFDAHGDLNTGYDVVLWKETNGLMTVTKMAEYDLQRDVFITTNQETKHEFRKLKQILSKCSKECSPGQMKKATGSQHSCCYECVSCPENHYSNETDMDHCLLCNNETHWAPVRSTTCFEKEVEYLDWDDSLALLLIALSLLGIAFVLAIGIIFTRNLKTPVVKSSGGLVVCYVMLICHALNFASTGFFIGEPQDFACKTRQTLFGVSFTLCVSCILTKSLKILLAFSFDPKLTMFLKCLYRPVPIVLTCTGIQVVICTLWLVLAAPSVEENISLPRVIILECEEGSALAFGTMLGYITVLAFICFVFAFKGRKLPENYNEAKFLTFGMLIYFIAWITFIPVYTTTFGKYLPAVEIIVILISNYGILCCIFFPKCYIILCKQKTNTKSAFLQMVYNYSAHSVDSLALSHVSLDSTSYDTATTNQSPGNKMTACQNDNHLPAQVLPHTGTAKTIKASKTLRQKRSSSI
Put plainly: Ca^2+i mobilisation, FlpIn-TREx-HEK293-mGPRC6A cells. The experiment is classed as cell-based. The method, then: pcDNA 5/FRT/TO constructs were isogenically integrated into a FlpIn-TREx-HEK293 cell line (Life Technologies). FlpIn-TREx-HEK293-mGPRC6A and FlpIn-TREx-HEK293-hGPRC6A cells were then selected using 600 μg/ml hygromycin and 5 μg/ml blasticidin and grown in culture medium consisting of Dulbecco’s Modified Eagle Medium (DMEM), supplemented with 10% (v/v) foetal bovine serum (FBS) at 37°C in 5% CO2 and were sub-cultured in a 1:3 ratio every 3–4 days. Cells were cultured overnight in the presence of 1 μg/ml tetracycline to induce GPRC6A expression. […] 48 h after transfection, cells were selected using 3 μg/ml puromycin and grown as above.
FlpIn-TREx-HEK293-mGPRC6A cells were seeded into T75 flasks at 70% confluency. Cells were transfected with 15μg of plasmid DNA (Gαq or GαqG66D) with Lipofectamine LTX according to manufacturer's instructions, then incubated for 24h at 37°C in 5% CO2. Cells were plated into 96-well plates (10^5 cells/well) and equilibrated at 37°C in 5% CO2 for 4-6h to adhere, whereupon cells were serum starved overnight at 37°C in 5% CO2. For the assay, cells were washed twice in Ca^2+ assay buffer (150 mM NaCl, 2.6 mM KCl, 1.2 mM MgCl2, 10 mM dextrose, 10 mM HEPES, 2.2 mM CaCl2, 0.5% (w/v) BSA and 4 mM probenecid; pH 7.4). Buffer was then replaced with Ca^2+ assay buffer containing 1μM Fluo-4-AM and incubated for 1h at 37°C in 5% CO2. Cells were washed twice more and replaced with Ca^2+ assay buffer at 37°C. Serial dilutions of test agonists were added by injection in a Flexstation™ (Molecular Devices) and fluorescence was measured at 485nm excitation and 520nm emission wavelengths. Agonist responses were normalised to the peak of response to 100 μM ATP.
as §1, with “Data” for “Concentration-response data were analysed using a three or four parameter logistic function (Motulsky & Christopoulos, 2004) to generate estimates of agonist potency (LogEC50). Data”

Experiment [4] concerns hC6A. As to conditions: ref [9] (supplement list); cited from earlier work. The text has this: (§2) Supplement pone.0146846.s004.docx, table 1 | column: Functional assay
The test system of experiment [5] is Unknown species GPRC6A. As to conditions: ref [11] (supplement list); cited from earlier work.
Source text: as §2

For experiment [6], the system named is mC6A. As to conditions: ref [18] (supplement list); cited from earlier work.
Source text: as §2

For experiment [7], the system named is PC-3 cells. To be noted: endogenous; ref [18] (supplement list); cited from earlier work.
Source text: as §2

In experiment [8] the test system is TC6. As to conditions: endogenous; ref [11] (supplement list); cited from earlier work.
Source text: as §2

In experiment [9] the test system is 22RV1 / PC-3. To be noted: endogenous; ref [9] (supplement list); cited from earlier work.
Source text: as §2

Experiment [10] concerns GPRC6A. As to conditions: HEK293 cells recombinantly expressing GPRC6A; ref [8], [10]–[12]; cited from earlier work. The text has this:
Additional interest in GPRC6A has emerged due to several studies reporting that it mediates the metabolic and endocrine effects of the de-carboxylated form of the osteoblast-derived peptide, osteocalcin (OCN).

For experiment [11], the system named is STC-1 cell line. To be noted: ref [22]; cited from earlier work. The text has this:
Given the range of OCN variants profiled, we propose that species and/or carboxylation status is unlikely to be a cause of the lack of activity in our assays. Other potential explanations are that the species of GPRC6A is critical or that HEK293 cells lack the necessary scaffolding and/or signalling proteins found in cells endogenously expressing GPRC6A. Unfortunately, human GPRC6A was not expressed at the cell surface in our cells, precluding a study of its pharmacology. However, we identified a range of immortalised murine entero-endocrine and pancreatic β-cell lines that express Gprc6a mRNA ...

Regarding `N=C(N)NCCC[C@H](N)C(=O)O` [L-arginine], in experiment [1], the “glucose-sensitive insulin secretion, L-arginine” value is recorded as “significantly increased GSIS”. Further, in [2], the “agonist response of GPRC6A” value was “mediates responses to L-amino acids”. Besides, the midpoint of the response in [3], the EC50, lay at 15.8 µM. Besides, the “potency at murine GPRC6A (calcium and inositol phosphate, words)” value in experiment [3] (calcium mobilisation and inositol phosphate accumulation, Discussion) was “most potent agonists”. Besides, the “rank order of potency, Ca^2+ mobilisation” value in experiment [3] (co-expressing GαqG66D, Fig 1D) is “L-ornithine > L-arginine = L-lysine”. The pERK1/2 response result is listed as “pERK1/2 – response to Ca^2+, ZnCl2, OCN, Arginine, Testosterone-BSA” in experiment [4]; “pERK1/2 - response to Ca^2+, L-Arg, OCN” in [5]; “pERK1/2 – response to Testosterone, L-Arg” in experiment [7]; “pERK1/2 – response to Ca^2+, ZnCl2, OCN, Arginine, Testosterone-BSA Proliferation – response to Ca^2+, OCN PSA, Runx2 expression – response to OCN, Arg, R1881 Chemotaxis (22RV1) – response to Ca^2+, OCN” in experiment [9]. In addition, in [6], the cAMP response entry is reported as “cAMP – response to Testosterone, L-Arg pERK1/2 – response to Testosterone”. For the same compound, in experiment [8], the “pERK1/2, pPKD1 response” value is recorded as “pERK1/2, pPKD1 – response to OCN, L-Arg”. The “PSA, Runx2 expression response” value in experiment [9] was “pERK1/2 – response to Ca^2+, ZnCl2, OCN, Arginine, Testosterone-BSA Proliferation – response to Ca^2+, OCN PSA, Runx2 expression – response to OCN, Arg, R1881 Chemotaxis (22RV1) – response to Ca^2+, OCN”.

Take “de-carboxylated OCN: de-carboxylated form of the osteoblast-derived peptide, osteocalcin (YLYQWLGAPVPYPDPLEPRREVCELNPDCDELADHIGFQEAYRRFYGPV; disulfide 23-29 (inferred); not fully specified; printed as YLYQWLGAPVPYPDPLEPRREVCELNPDCDELADHIGFQEAYRRFYGPV-NH2/-COOH; ends not checked; UniProt P02818 52-100, looked up)”: in experiment [10], the ERK1/2 phosphorylation result is reported as “can stimulate cAMP accumulation or ERK1/2 phosphorylation” and the cAMP accumulation result is reported as “can stimulate cAMP accumulation or ERK1/2 phosphorylation”. Further, the GLP-1 release result in [11] is recorded as “evoke GLP-1 release”.
